The values that follow come from ChEMBL document CHEMBL1134341, “Calculation of the hydrophobicity of platinum drugs” (J Med Chem, 2001).

The nature of series [1]: The observed [pt] (mmol/mg protein) value for platinum content in cells. In kind it is ADME.
Series [2] in a line: Octanol-water partition coefficient (logP) value for platinum compounds. Format: physicochemical.

“AMMONIO(DICHLORO)[DI(METHYLCARBONYLOXY)]PLATINUM(CYCLOHEXYL)AMMONIUM”: the “Observed [pt]” value in series [1] is on record as 3.5 mM (mg of protein)-1. Also, the logP (commonly a log measure of how a compound divides between an organic and an aqueous phase) in series [2] was -0.47.

As for “AMMONIO(DICHLORO)[DI(BUTYLCARBONYLOXY)]PLATINUM(CYCLOHEXYL)AMMONIUM”, the “Observed [pt]” value in series [1] is on record as 17 mM (mg of protein)-1. Besides, the logP in series [2] was determined as 0.86.

As for “AMMONIO(DICHLORO)[DI(PROYLCARBONYLOXY)]PLATINUM(CYCLOHEXYL)AMMONIUM”, in series [1], the “Observed [pt]” value is 13.5 mM (mg of protein)-1. This substance returned a logP in series [2] of 0.47.

With “AMMONIO(DICHLORO)PLATINUM(CYCLOHEXYL)AMMONIUM”, the “Observed [pt]” value in series [1] was 1.9 mM (mg of protein)-1. The substance also registered a logP in series [2] of -0.87.

Take CISPLATIN: in series [1], the “Observed [pt]” value is 1 mM (mg of protein)-1. Moreover, in series [2], the lipophilicity (logP) is reported as -2.36.
